Measured values from ChEMBL document CHEMBL1201862, “PubChem BioAssay data set” (2004).
Calls of active or inactive are those of the source.

Columns and labels:
[1] = molecular target: T1, Apoptotic protease-activating factor 1 (Homo sapiens, UniProt O14727); format: functional
T1 sequence (O14727 whole entry): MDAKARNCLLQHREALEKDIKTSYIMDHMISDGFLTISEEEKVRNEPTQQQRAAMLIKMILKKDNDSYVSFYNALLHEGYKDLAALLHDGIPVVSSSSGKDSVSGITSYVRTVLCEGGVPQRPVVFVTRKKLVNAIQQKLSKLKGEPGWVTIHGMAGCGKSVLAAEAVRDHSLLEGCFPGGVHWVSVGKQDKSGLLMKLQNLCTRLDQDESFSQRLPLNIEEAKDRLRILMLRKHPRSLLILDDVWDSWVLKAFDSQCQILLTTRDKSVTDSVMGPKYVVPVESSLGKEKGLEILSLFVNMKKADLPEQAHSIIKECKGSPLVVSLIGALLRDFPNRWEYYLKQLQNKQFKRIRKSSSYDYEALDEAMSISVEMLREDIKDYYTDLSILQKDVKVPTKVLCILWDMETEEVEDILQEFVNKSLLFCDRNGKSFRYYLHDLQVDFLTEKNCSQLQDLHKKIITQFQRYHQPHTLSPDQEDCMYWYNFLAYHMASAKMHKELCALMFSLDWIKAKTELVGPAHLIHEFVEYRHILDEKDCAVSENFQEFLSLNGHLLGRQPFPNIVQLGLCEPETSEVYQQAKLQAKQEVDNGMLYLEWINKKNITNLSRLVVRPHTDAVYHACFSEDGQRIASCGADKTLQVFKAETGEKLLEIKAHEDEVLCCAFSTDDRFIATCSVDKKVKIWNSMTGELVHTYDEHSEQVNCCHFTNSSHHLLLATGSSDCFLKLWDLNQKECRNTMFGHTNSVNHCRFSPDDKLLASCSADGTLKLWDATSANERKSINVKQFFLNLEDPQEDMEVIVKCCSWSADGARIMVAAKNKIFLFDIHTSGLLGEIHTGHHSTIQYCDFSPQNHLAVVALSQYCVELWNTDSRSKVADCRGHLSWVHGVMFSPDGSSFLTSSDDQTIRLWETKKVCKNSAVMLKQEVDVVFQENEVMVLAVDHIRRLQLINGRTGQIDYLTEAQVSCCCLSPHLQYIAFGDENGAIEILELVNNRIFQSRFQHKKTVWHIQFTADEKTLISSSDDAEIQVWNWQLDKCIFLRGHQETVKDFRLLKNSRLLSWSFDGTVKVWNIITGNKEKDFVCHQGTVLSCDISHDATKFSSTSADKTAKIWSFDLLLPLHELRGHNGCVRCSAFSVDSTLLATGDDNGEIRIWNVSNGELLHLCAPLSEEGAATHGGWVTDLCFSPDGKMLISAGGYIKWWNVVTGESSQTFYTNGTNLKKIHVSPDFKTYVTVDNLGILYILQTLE

[2] = cells; format: functional
[3] = nonselective inhibitors of cellular cAMP signaling, dose response, counter-screen for MC4R biased antagonist project, cell-based, TR-FRET cAMP detection (AID 602305); format: functional;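 also: U2OS cells stimulated with forskolin near its EC80 as the cAMP inducer; potency is for inhibition of forskolin-stimulated cAMP signaling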
[4] = molecular target: Melanocortin receptor 4 (Homo sapiens, UniProt P32245); assay: MC4R antagonist potency on cAMP, dose response, cell-based, TR-FRET, biased antagonists (AID 602298); format: functional;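 also: antagonist potency against agonist-stimulated cAMP production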
[5] = molecular target: Cytochrome P450 3A4 (Homo sapiens, UniProt P08684); details: Potency;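 also: confirmatory qHTS run detecting inhibitors and substrates of CYP3A4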
[6] = molecular target: Genome polyprotein (dengue virus type 2, UniProt P29990); assay: Dengue-2 NS5 methyltransferase inhibitors, primary screen, biochemical, confirmation dose response (AID 588689); format: functional
[7] = molecular target: T2, High affinity choline transporter 1 (Homo sapiens, UniProt Q9GZV3); assay: CHT inhibitors, dose response, cell-based, 5-point CRC, membrane potential dye (AID 504840); format: functional
T2 sequence (Q9GZV3 whole entry): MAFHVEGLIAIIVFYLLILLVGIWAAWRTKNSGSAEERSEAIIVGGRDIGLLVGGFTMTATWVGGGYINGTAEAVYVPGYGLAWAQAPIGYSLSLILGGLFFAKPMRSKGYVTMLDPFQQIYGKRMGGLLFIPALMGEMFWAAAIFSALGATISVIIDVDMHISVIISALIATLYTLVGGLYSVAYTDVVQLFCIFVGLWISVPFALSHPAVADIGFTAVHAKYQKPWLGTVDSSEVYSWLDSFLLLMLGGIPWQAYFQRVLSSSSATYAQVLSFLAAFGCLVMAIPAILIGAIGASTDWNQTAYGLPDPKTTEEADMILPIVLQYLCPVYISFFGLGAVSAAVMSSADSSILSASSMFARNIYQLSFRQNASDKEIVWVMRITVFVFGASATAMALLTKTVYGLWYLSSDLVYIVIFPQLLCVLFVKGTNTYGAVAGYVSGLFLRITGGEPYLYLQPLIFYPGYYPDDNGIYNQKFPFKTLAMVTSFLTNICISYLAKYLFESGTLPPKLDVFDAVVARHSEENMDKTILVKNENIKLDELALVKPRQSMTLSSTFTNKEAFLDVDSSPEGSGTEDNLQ

[8] = tested on: HeLa; assay: HeLa cell cytotoxicity, dose response, cytotoxicity control, ATP luminescence, cherry-pick samples (AID 687004); format: functional, cell-based; details: Homo sapiens
[9] = THP-1 cell cytotoxicity, dose response, cytotoxicity control for non-replicating M. tuberculosis project (AID 489025); format: functional
[10] = cells; format: functional, cell-based
[11] = cells; format: functional, cell-based; remark: listed apart in the source
[12] = molecular target: T3, Ubiquitin-conjugating enzyme E2 N (Homo sapiens, UniProt P61088); format: functional;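 also: Dose-response confirmation in a TR-FRET assay detecting UBC13-driven polyubiquitin chain formation, inhibition measured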
T3 sequence (P61088 whole entry): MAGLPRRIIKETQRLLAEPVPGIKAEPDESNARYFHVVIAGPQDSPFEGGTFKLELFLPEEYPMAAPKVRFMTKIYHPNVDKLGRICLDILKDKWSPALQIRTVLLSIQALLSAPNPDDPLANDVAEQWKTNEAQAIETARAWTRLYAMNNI
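For EC50 in this document: agonist potency from rise in intracellular calcium fluorescence.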

Genome polyprotein, sequence (P29990 2492-3391 limits assumed): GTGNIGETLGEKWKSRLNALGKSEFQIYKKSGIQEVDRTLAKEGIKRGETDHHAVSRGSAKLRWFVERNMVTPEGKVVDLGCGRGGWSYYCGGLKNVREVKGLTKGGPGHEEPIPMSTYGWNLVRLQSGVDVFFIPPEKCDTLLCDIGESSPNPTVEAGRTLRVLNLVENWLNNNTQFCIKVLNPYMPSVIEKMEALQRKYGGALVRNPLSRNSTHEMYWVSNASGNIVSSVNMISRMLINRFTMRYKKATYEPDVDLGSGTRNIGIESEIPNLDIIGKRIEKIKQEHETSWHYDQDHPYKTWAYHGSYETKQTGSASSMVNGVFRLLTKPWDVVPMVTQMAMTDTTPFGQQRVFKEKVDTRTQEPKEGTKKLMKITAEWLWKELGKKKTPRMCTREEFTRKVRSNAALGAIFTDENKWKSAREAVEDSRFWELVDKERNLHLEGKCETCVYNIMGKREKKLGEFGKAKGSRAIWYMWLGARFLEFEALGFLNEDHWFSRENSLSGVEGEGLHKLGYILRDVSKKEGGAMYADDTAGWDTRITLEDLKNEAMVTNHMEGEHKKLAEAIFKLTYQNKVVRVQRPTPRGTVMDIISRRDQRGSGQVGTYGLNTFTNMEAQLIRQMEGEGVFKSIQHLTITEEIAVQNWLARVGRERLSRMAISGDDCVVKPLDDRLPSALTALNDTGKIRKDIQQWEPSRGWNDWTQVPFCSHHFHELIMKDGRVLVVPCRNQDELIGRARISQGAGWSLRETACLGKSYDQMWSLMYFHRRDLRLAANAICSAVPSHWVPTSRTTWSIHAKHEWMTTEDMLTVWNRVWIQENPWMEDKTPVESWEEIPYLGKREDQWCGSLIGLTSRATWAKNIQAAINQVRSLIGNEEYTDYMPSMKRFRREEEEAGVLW
Cytochrome P450 3A4, sequence (P08684 whole entry): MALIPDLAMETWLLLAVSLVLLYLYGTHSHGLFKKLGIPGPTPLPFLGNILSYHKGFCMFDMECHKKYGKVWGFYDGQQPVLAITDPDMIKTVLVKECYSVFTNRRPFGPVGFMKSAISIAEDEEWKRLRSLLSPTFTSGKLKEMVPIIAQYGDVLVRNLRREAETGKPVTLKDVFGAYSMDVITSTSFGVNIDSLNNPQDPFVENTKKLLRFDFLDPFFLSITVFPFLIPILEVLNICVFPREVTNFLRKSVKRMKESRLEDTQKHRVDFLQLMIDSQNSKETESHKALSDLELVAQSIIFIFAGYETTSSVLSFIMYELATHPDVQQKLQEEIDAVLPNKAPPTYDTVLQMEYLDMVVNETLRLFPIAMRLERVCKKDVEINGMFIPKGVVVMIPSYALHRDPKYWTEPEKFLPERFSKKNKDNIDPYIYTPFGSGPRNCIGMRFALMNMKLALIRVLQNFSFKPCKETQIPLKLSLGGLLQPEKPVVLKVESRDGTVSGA
Melanocortin receptor 4, sequence (P32245 whole entry): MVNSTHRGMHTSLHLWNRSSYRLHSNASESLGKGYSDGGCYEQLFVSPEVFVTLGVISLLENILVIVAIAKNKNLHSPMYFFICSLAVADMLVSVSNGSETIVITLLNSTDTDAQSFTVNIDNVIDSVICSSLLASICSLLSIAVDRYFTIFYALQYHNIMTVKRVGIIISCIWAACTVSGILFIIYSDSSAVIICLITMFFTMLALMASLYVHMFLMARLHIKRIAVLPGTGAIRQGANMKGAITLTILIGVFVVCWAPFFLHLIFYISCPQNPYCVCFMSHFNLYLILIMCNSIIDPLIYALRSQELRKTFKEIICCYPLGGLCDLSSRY

For `Cc1cccc(NC(=O)CSCC(=O)N(C)Cc2ccc(Cl)c(Cl)c2)c1`, the IC50 [1] was > 100 µM (inactive).
With `COC(=O)COc1ccc(-c2ccc(F)cc2)cc1C=O` the IC50 [2] was 3.51 µM (active).
In the case of `O=C(Nc1ccc(F)c([N+](=O)[O-])c1)C1CC(=O)N(Cc2ccccc2)C1` (stereo not given), the IC50 [3] is reported as > 64.6 µM (inactive) and the IC50 [4] is reported as > 64.6 µM (inactive).
With `CN1CCc2cc3c(cc2C(=O)Cc2ccc4c(c2C1)OCO4)OCO3` the AC50 [5] was 25.1 µM (inconclusive).
For `O=C1NN(c2ccccc2)C(=O)/C1=C\c1ccccc1OCC(=O)N1CCOCC1`, the IC50 [6] was > 100 µM (active).
For `CCn1c(SCc2nc(-c3ccc(OC)c(OC)c3)no2)nnc1-c1cccs1`, the IC50 [7] was 11.2 µM (active).
In the case of `COc1ccc(/C=C2/SC(=S)N(CC(=O)O)C2=O)cc1OCc1ccc(Cl)cc1`, the IC50 [6] is reported as > 100 µM (active).
In the case of `Cc1cccc(C)c1NC(=O)C(CCc1ccccc1)N1CCC(c2ccccc2)CC1` (stereo not given), the AC50 [8] is reported as > 52 µM (inactive).
In the case of `CC(/C=C(\O)c1ccc(Br)cc1)=N/NC(=O)c1ccccc1`, the CC50 [9] is reported as 22.2 µM (active).
For `O=C(CSc1nccc(O)n1)N1CCc2ccccc2C1`, the IC50 [10] was > 29.9 µM (inactive) and the EC50 [11] was > 29.9 µM (inactive).
With `Cc1cc(C)cc(N(C(=O)c2snc(C(N)=O)c2N)C(C(=O)NCC2CCCO2)c2ccc(C)o2)c1` (stereo not given) the IC50 [12] was > 20 µM (inactive).
In the case of `O=C1/C(=C/C=C/c2ccccc2)Oc2c1ccc(O)c2CN1CCN(CCO)CC1`, the IC50 [2] is reported as 23.3 µM (active) and the CC50 [9] is reported as > 40 µM (active).
